Measurements reported in patent EP0449195B1, “Aminobenzene compounds, their production and use” (Takeda Chemical Industries, Ltd., priority 1990, dated 1991).

Tested on: N18-RE-105 cells
Experiment: Protective activity to glutamic acid-induced necrocytosis in N18-RE-105 cells (cell lethal ratio from LDH activity)
Format: cell-based
Settings: glutamic acid (10 mM), cultivation 24 hours after addition, LDH activity in cells and medium, read-out: IC₅₀ (minimum concentrations for depressing cell lethal ratio to not more than 50%), Effect on glutamic acid cytotoxicity (cell lethal ratio)
Description: When a high concentration of glutamic acid (1 to 10 mM) is added to N18-RE-105 cells, neocrocytosis caused by oxidative stress due to inhibition of incorporation of cystine into cells is observed [Neuron 2, 1547 (1989); J. Pharmacol. Exp. Ther. 250, 1132 (1989)].
Activity of various compounds against this glutamic acid-induced necrocytosis was studied. About 10,000 cells were inoculated into a culture dish of 35 mm in diameter containing DMEM medium (1 ml). After cultivation for 24 hours, glutamic acid and a compound to be tested were added. After the medium was changed to DMEM mediums containing the compound in various concentrations and then glutamic acid (10 mM) was added. After addition of glutamic acid, cultivation was further continued for 24 hours. Then, surviving cells were collected and […] activity contained in the cells and medium was determined. A cell lethal ratio (%) was calculated according to the following formula: Cell lethal ratio (%) =(LDH activity in medium)/(LDH activity in cells + LDH activity in medium)x 100 [formula] Regarding the typical compounds of the present invention, minimum concentrations for depressing cell lethal ratio to not more than 50% (IC₅₀) is shown in Table 9.

| Substance | IC50 [nM] |
| --- | --- |
| 4-(4-octylaminophenyloxy)piperidine [Example 45] | 5.5 |
| 4-[4-(1-phenyldecanylamino)phenyloxy]piperidine [Example 52] | 10 |
